{"source": "patent US20010046548A1", "about": "“Anticholesterolemic edible oil” (priority 1998, published 2001)", "origin": "cited, not measured here", "data": [{"molecule": "CC[C@H](CC[C@@H](C)[C@H]1CC[C@H]2[C@@H]3CC=C4C[C@@H](O)CC[C@]4(C)[C@H]3CC[C@]12C)C(C)C", "note": "[beta-sitosterol]", "values": [{"measurement": "fraction absorbed", "setting": "ingested, small intestine", "result": "less than 5%"}]}, {"molecule": "CC[C@H](CC[C@@H](C)[C@H]1CC[C@H]2[C@@H]3CC[C@H]4C[C@@H](O)CC[C@]4(C)[C@H]3CC[C@]12C)C(C)C", "note": "[sitostanol]", "values": [{"measurement": "absorption", "setting": "in vivo", "result": "completely unabsorbed"}]}]}
